Values of other authors as cited in US20240238452A1, “STAINING AGENT FOR GASTROINTESTINAL MUCOSA AND PREPARATION METHOD THEREFOR” (BEIJING COMPONT MEDICAL DEVICES CO., LTD., priority 2023, published 2024).

Key:
[1] = EFSA report 2009
[2] = International Journal of Toxicology 2010

SMILES	allowable daily intake (ADI) [1]	safety: acute oral, short-term skin, subchronic skin, heredity and other aspects [2]
COc1cc(S(=O)(=O)[O-])c(C)cc1N=Nc1c(O)ccc2cc(S(=O)(=O)[O-])ccc12.[Na+].[Na+] [allure red]	7 mg/kg·bw/day	–
Cc1ccc(Nc2ccc(O)c3c2C(=O)c2ccccc2C3=O)c(S(=O)(=O)[O-])c1.[Na+] [acid violet 43]	–	no abnormal report
O=C1/C(=C2\Nc3ccc(S(=O)(=O)[O-])cc3C2=O)Nc2ccc(S(=O)(=O)[O-])cc21.[Na+].[Na+] [indigo carmine, reference compound]	5 mg/kg·bw/day	–
